Laboratory results: patent publication US20110224221A1, “HEMATOPOIETIC PROTECTION AGAINST IONIZING RADIATION USING SELECTIVE CYCLIN-DEPENDENT KINASE 4/6 INHIBITORS” (priority 2008, published 2011)

Legend:
[1] = test system: human melanoma cell line WM2664; experiment: Cell cycle analysis (BrdU incorporation in vitro), WM2664; format: cell-based; settings: WM2664, 24 hours exposure
Excerpt: FIG. 3A is a set of graphs showing the dose-response curves for cycle analysis in both cyclin-dependent kinase 4/6 (CKD4/6)-dependent cells (human telomerized human diploid fibroblasts (tHDFs, left-hand column of graphs) and a CDK4/6-dependent human melanoma cell line (WM2664, middle column of graphs)) and in CDK4/6-independent cells (a human retinoblastoma tumor suppressor protein (RB)-null melanoma cell line (A2058), right-hand column of graphs). […] The percentage of cells in the G1 phase is indicated by the data shown in the open triangles, while the percentage of cells in the S phase is shown by the data in the shaded circles and the percentage of cells in the G2/M phase is indicated by the data in the double “x”s.
FIG. 8 is a set of representative cell cycle dot-plots for cyclin-dependent kinase 4/6 (CDK4/6)-dependent (WM2664) human melanoma cells (top two rows) and CDK4/6-independent (A2058) human melanoma cells (bottom two rows) that had been treated with dimethyl sulfoxide (DMSO) as a control or with 300 nM, 1 μM, 3 μM, 10 μM or 30 μM of trans-4-[[6-ethylamino)-2-[[2-phenylmethyl)-1H-indol-5-yl]amino]-4-pyrimidinyl]amino]]-cyclohexanol (CINK4).
Cell Lines: KPTR1, KPTR4. and KPTR5 were derived from tumor-bearing TyrRAS+Ink4a/Arf−/− by standard procedures and cultured in RPMI+10% fetal bovine serum (FBS). Telomerized HDFs (tHDFs, also known as HS68) were cultured in DMEM+10% FBS with penicillin and streptomycin. The same conditions were used for A2058 and WM2664, human melanoma cell lines with known RB-pathway mutations: A2058 is RB-null, whereas WM2664 lacks p16^INK4a/Arf. See Shields, et al., Cancer Res., 67, 1502-1512 (2007). Cells were irradiated for indicated doses in a Rad Source Inc. (Alpharetta, Ga., United States of America) RS-2000 Biological Irradiator at 160 kV, 25.0 mA, at distance setting 1, with a dose rate of 103 rads/min.
BrdU Incorporation in vitro: Cells were plated and allowed to adhere overnight or at least 6 hours prior to adding CDK4/6 inhibitor at the indicated concentrations. Cells were grown for 24 hours in the presence of CDK4/6 inhibitor. 15 minutes prior to cell harvesting, 5-Bromo-2-deoxyuridine (BrdU) was added to the media at a final concentration of 10 μM. The cells were then washed, trypsinized, pelleted, fixed, permeabilized, stained, and measured on a flow cytometer as described in manufacturer directions for the BrdU Kit (BD Biosciences Pharmingen, San Diego, Calif., United States of America).
The proliferation of seven RB-deficient human small cell lung cancer lines was also resistant to the selective CDK4/6 inhibitors.

[2] = test system: peripheral blood lineages; experiment: Peripheral blood counts after TBI; format: in vivo, mice; settings: for bone marrow protection: after IR; for protection/recovery of peripheral blood lineages: platelets, erythrocytes, myeloid cells, lymphocytes after IR
Procedure: For comparison, data from mice that had not been exposed to IR is also shown (lightly shaded bars). […] Error bars show standard error of the mean.
Data was prepared from weekly complete blood counts on tail vein bleeds. Asterisk(s) indicate statistical significance determined by a 2-sided t-test. Error bars are +/− the standard error of the mean.
For TBI experiments, mice were irradiated using a ^137Cs source (AECL Gammacell 40 Irradiator, Atomic Energy of Canada Ltd, Mississauga, Ontario, Canada). Delivered doses were at or near the empirically determined LD90 of 7.5 Gy, consistent with prior studies. See Na Nakorn et al., J. Clin. Invest., 109, 1579-1585 (2002); Herodin et al., Blood, 101, 2609-2616 (2003); Uckun et al., Blood, 75, 638-645 (1990); and Wang et al., Proc. Natl. Acad. Sci., USA, 94, 14590-14595 (1997). Peripheral blood was collected using a tail vein nick for complete blood cells (CBCs) and analyzed with a HemaTrue analyzer (Heska Co., Loveland, Colo., United States of America).
The peripheral blood of animals after IR exposure was studied to confirm that the improved survival was due to protection of hematopoietic lineages.

SMILES	cell cycle effect [1]	bone marrow protection [2]	anemia and thrombocytopenia ([2]; lethally irradiated mice (7.5 Gy))	protection/recovery of peripheral blood lineages [2]	protection/recovery of peripheral blood lineages ([2]; listed as PD 0332991)	blood count nadirs and recovery ([2]; sub-lethal dose of TBI (6.5 Gy))
O=C1NC(=O)c2c1c1c3ccccc3[nH]c1c1[nH]c3cc(Br)ccc3c21 [Compound 2BrIC, 2-bromo-12,13-dihydro-5H-indolo[2,3-a]pyrrolo[3,4]-carbazole-5,6-dione]	strong, reversible G1-arrest	marked bone marrow protection				
CC(=O)c1c(C)c2cnc(Nc3ccc(N4CCNCC4)cn3)nc2n(C2CCCC2)c1=O [PD0332991, 6-acetyl-8-cyclopentyl-5-methyl-2-(5-piperazin-1-yl-pyridin-2-ylamino)-8H-pyrido-[2,3-d]-pyrimidin-7-one]	strong, reversible G1-arrest	marked bone marrow protection	significantly ameliorated	beneficial effect on the recovery of all peripheral blood lineages	protects all lineages of blood cells	diminished count nadirs and caused more rapid count recovery
